In US20230167088A1, “1-PYRAZINYLPYRAZOLYL-3-OXYALKYL ACIDS AND THEIR DERIVATIVES, AND THEIR USE FOR CONTROL OF UNDESIRED PLANT GROWTH” (BAYER AKTIENGESELLSCHAFT, priority 2020, published 2023):

Columns and labels:
POAAN = test: Herbicidal post-emergence action 1b (twin sowing, 1280 g/ha); type: in vivo, Poa annua; settings: dosage 1280 g/ha, visual rating about 3 weeks after treatment
In short: (§1)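 Twin-sown weeds in sandy loam, greenhouse-grown 2–3 weeks, sprayed post-emergence at one-leaf stage with WP/EC formulations plus 0.5% additive at 600 L/ha water. Damage rated visually about 3 weeks later versus untreated controls (100% = plants dead, 0% = like control).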

MATIN [1] = test: Herbicidal post-emergence action 1a (greenhouse pots, visual rating); type: in vivo, Matricaria inodora; settings: visual rating about 3 weeks after treatment
In short: (§2)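 Weeds and crops sown in sandy loam in greenhouse pots were sprayed post-emergence at the one-leaf stage (2–3 weeks after sowing) with WP or EC formulations plus 0.5% additive at 600 l/ha water, 320 and/or 80 g/ha. About 3 weeks later damage was rated visually against untreated controls (0% = no effect, 100% = dead).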

AMARE = test: Herbicidal pre-emergence action 2a (greenhouse pots, visual scoring); type: in vivo, Amaranthus retroflexus; settings: dosage 320 g/ha, visual scoring after about 3 weeks vs untreated controls
In short: (§3)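 Weed and crop seeds placed in pots and covered with soil; aqueous suspension or emulsion of WP/EC formulation applied to the soil surface before emergence (600 l/ha, 0.5% additive, 320 and/or 80 g/ha). Pots kept in the greenhouse about 3 weeks; visual percentage scoring.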

MATIN [2] = test: Herbicidal post-emergence action 1b (twin sowing, 1280 g/ha); type: in vivo, Matricaria inodora; settings: dosage 1280 g/ha, visual rating about 3 weeks after treatment
In short: as §1

POLCO = test: Herbicidal post-emergence action 1a (greenhouse pots, visual rating); type: in vivo, Polygonum convolvulus; settings: visual rating about 3 weeks after treatment
In short: as §2

DIGSA [3] = test: Herbicidal pre-emergence action 2b (doubly sown, 1280 g/ha); type: in vivo, Digitaria sanguinalis; settings: doubly sown pots, dosage 1280 g/ha, visual scoring after about 3 weeks
In short: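 Pots of sandy loam doubly sown with one monocot and one dicot weed species, covered, then soil surface sprayed pre-emergence with WP or EC formulations plus 0.5% additive at 600 l/ha water. Greenhouse-grown about 3 weeks; activity scored visually as % versus untreated controls (100% = dead).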

AVEFA = test: Herbicidal post-emergence action 1a (greenhouse pots, visual rating); type: in vivo, Avena fatua; settings: rated visually about 3 weeks after treatment, 100% = plants have died, 0% = like control plants
In short: as §2

LOLRI = test: as above; type: in vivo, Lolium rigidum; settings: rated visually about 3 weeks after treatment, 100% = plants have died, 0% = like control plants
In short: as §2

DIGSA [4] = test: Herbicidal post-emergence action 1b (twin sowing, 1280 g/ha); type: in vivo, Digitaria sanguinalis; settings: dosage 1280 g/ha, visual rating about 3 weeks after treatment
In short: as §1

ABUTH [5] = test: Herbicidal post-emergence action 1a (greenhouse pots, visual rating); type: in vivo, Abutilon theophrasti; settings: visual rating about 3 weeks after treatment
In short: as §2

PHBPU = test: Herbicidal pre-emergence action 2a (greenhouse pots, visual scoring); type: in vivo, Pharbitis purpurea; settings: dosage 320 g/ha, visual scoring after about 3 weeks vs untreated controls
In short: as §3

ABUTH [6] = test: Herbicidal post-emergence action 1b (twin sowing, 1280 g/ha); type: in vivo, Abutilon theophrasti; settings: dosage 1280 g/ha, visual rating about 3 weeks after treatment
In short: as §1

ABUTH [7] = test: Herbicidal pre-emergence action 2a (greenhouse pots, visual scoring); type: in vivo, Abutilon theophrasti; settings: dosage 320 g/ha, visual scoring after about 3 weeks vs untreated controls
Description: [table] a) Seeds of monocotyledonous and dicotyledonous weed plants and crop plants are placed in plastic or organic plant pots and covered with soil. The compounds of the invention, formulated in the form of wettable powders (WP) or as emulsion concentrates (EC), are then applied onto the surface of the covering soil as aqueous suspension or emulsion with addition of 0.5% additive at a water application rate of 600 1/ha (converted). After the treatment, the pots are placed in a greenhouse and kept under good growth conditions for the trial plants. After about 3 weeks, the effect of the preparations is scored visually in comparison with untreated controls as percentages. For example, 100% activity=the plants have died, 0% activity=like control plants. Tables B1 to B15 below show the effects of selected compounds of the general formula (I) according to Tables 1 and 2 on various harmful plants and an application rate corresponding to 320 g/ha and/or 80 g/ha, which were obtained by the experimental procedure mentioned above.

Row | SMILES | Post-emergence action at 1280 g/ha against POAAN in % (POAAN) | Post-emergence action against MATIN in % (MATIN [1]; dosage 320 g/ha) | Pre-emergence action against AMARE in % (AMARE) | Post-emergence action at 1280 g/ha against MATIN in % (MATIN [2]) | Post-emergence action against POLCO in % (POLCO; dosage 320 g/ha) | Pre-emergence action at 1280 g/ha against DIGSA in % (DIGSA [3]) | Post-emergence action against AVEFA in % (AVEFA; Dosage 320 g/ha) | Post-emergence action against LOLRI in % (LOLRI; Dosage 320 g/ha) | Post-emergence action at 1280 g/ha against DIGSA in % (DIGSA [4]) | Post-emergence action against ABUTH in % (ABUTH [5]; dosage 80 g/ha) | Post-emergence action against ABUTH in % (ABUTH [5]; dosage 320 g/ha) | Post-emergence action against AVEFA in % (AVEFA; Dosage 80 g/ha) | Pre-emergence action against PHBPU in % (PHBPU) | Post-emergence action against LOLRI in % (LOLRI; Dosage 80 g/ha) | Post-emergence action at 1280 g/ha against ABUTH in % (ABUTH [6]) | Post-emergence action against MATIN in % (MATIN [1]; dosage 80 g/ha) | Post-emergence action against POLCO in % (POLCO; dosage 80 g/ha) | Pre-emergence action against ABUTH in % (ABUTH [7])
1 | COC(=O)[C@@H](C)Oc1nn(-c2cnccn2)c(-c2ccnc(F)c2)c1Br [Example I-34] | 100% | 90% | 90% | 90% | 100% | 100% | 90% | 80% | 100% |  |  |  |  |  |  |  |  | 
2 | COC(=O)COc1nn(-c2cnccn2)c(-c2ccc(F)c(F)c2)c1Br [Example I-15] |  | 80% | 100% |  |  |  | 90% | 90% |  | 80% | 80% | 90% | 90% | 90% |  |  |  | 
3 | CCOC(=O)COc1nn(-c2cnccn2)c(-c2ccc(F)nc2)c1Br [Example I-52, ethyl {[4-bromo-5-(6-fluoropyridin-3-yl)-1-(pyrazin-2-yl)-1H-pyrazol-3-yl]oxy}acetate] |  |  | 100% | 90% | 80% | 100% |  |  |  |  | 80% |  | 100% |  |  |  |  | 
4 | CCOC(=O)COc1nn(-c2cnccn2)c(-c2ccc(F)nc2)c1Cl [Example I-53] | 100% |  | 100% | 100% | 90% | 100% |  |  | 100% | 80% |  |  |  |  | 90% | 80% | 90% | 
5 | COC(=O)[C@@H](C)Oc1nn(-c2cnccn2)c(-c2ccc(F)nc2)c1Cl [Example I-36] | 100% | 80% | 100% | 90% | 100% | 100% | 90% | 90% | 100% |  | 80% | 90% |  |  | 90% |  | 90% | 
6 | COC(=O)[C@@H](C)Oc1nn(-c2cnccn2)c(-c2cncc(F)c2)c1Br [Example I-39] | 100% | 90% | 100% | 90% | 90% | 100% | 90% | 90% | 100% | 80% | 80% | 80% |  | 90% |  | 80% |  | 90%
7 | COC(=O)[C@@H](C)Oc1nn(-c2cnccn2)c(-c2ccc(F)c(F)c2)c1Br [Example I-45] | 100% | 80% | 100% |  | 100% | 100% | 80% | 90% | 100% |  | 80% |  |  | 90% | 90% |  |  | 
8 | COC(=O)COc1nn(-c2cnccn2)c(-c2ccc(F)nc2)c1Br [Example I-11] | 100% | 80% | 90% |  | 90% | 90% |  |  | 100% |  | 80% |  | 90% |  | 90% |  |  | 
9 | COC(=O)[C@@H](C)Oc1nn(-c2cnccn2)c(-c2cccc(F)c2)c1Br [Example I-20] | 100% |  | 100% | 100% | 80% |  | 90% | 100% |  | 80% | 90% | 90% |  | 90% | 90% |  |  | 
10 | COC(=O)C(C)Oc1nn(-c2cnccn2)c(-c2ccc(F)c(F)c2)c1Br (racemic) [Example I-16] | 100% | 80% | 100% | 90% | 90% |  | 100% | 90% |  |  | 80% | 90% |  |  | 90% |  |  | 
11 | COC(=O)[C@@H](C)Oc1nn(-c2cnccn2)c(-c2cncc(F)c2)c1C#N [Example I-40] | 100% |  | 90% | 100% | 80% | 100% | 80% | 80% | 90% | 80% | 80% |  |  |  |  |  | 80% | 
12 | C[C@H](Oc1nn(-c2cnccn2)c(-c2cncc(F)c2)c1Br)C(=O)O [Example I-37] | 100% | 80% | 90% | 90% | 100% | 100% | 90% | 90% | 100% | 80% | 80% | 90% |  |  | 90% |  |  | 
13 | COC(=O)C(C)Oc1nn(-c2cnccn2)c(-c2ccc(F)c(F)c2)c1C#N (racemic) [Example I-22] | 100% | 80% | 90% | 90% | 80% |  | 100% | 100% |  |  |  | 100% |  | 80% |  |  |  | 
